Data published in patent US11519859B2, “Rhodol-based thallium sensors for high-throughput screening of potassium channels” (priority 2018, dated 2022).

Tests used:
[1] = test system: HEK-293 cells co-expressing GIRK1 and GIRK2; conditions: dye loading 1 h, 1 mM Tl^+ stimulus; for on/off (Tl^+ flux assay), maximum fold increase in fluorescence after Tl^+ addition: 10 μM ML297, 2 mM Allura Red AC, n = 6
Description: HEK-293 cells co-expressing GIRK1 and GIRK2 were cultured to 80% confluence in a T75 flask (Techno Plastic Products, Trasadingen, CH) at 37° C. and 5% CO2 in medium consisting of Minimal Essential Medium (Cellgro, Manassas, Va.) containing 1× Glutagro (Cellgro, Manassas, Va.) and 10% (v/v) heat-inactivated fetal bovine serum (Life Technologies, Carlsbad, Calif.). The cells were dislodged by treatment with TrypLE (Gibco/Life Technologies, Carlsbad, Calif.), diluted in medium, and plated on clear bottomed, black-walled, amine coated 384 well plates (BD Biosciences, Billerica, Mass.) at a density ˜20,000 cells per well. The plated cells were incubated overnight at 37° C. and 5% CO2 and used for the assay the next day.
Dye loading solutions of Thallos were prepared by dissolving a 25 μg aliquot in 30 μL of 6.7% Pluoronic F-127 (w/v) in DMSO and diluting the resulting solution 1:1000 into assay buffer. Culture medium was removed and replaced with 20 μL of dye loading buffer and incubated in the dark at room temperature for 1 h.
Assay—Assays were conducted on a WaveFront Biosciences Panoptic 1 or 2 (WaveFront Biosciences, Franklin, Tenn.) as indicated. Dye loading solutions were removed and replaced with assay buffer immediately before imaging unless otherwise noted. 10 s following commencement of plate imaging, 20 μL of compound at 2.5× concentration in assay buffer was added and incubated for 120 s at which point 10 μL of Tl^+ at 5× concentration in stimulus buffer (125 mM NaHCO3, 1.8 mM CaSO4, 1 mM MgSO4, 5 mM glucose, 10 mM HEPES, pH 7.4, and T12SO4), and images taken for the following 120 s.
1 mM of T12SO4 (final concentration) was used for stimulus. Assay and stimulus buffers were supplemented with 2 mM of Allura Red AC. […] On/off ratios were calculated by dividing the fluorescence intensity after saturation following Tl^+ addition by the fluorescence intensity immediately after compound addition (n=6).

[2] = Determination of photochemical properties of saponified dyes; type: physicochemical; conditions: for λem (fluorescence emission maximum) / λmax (absorption maximum) / ε (molar absorptivity): after saponification, 150 mM KCl, 10 mM HEPES, 50 μM EDTA, pH = 7.22; for ε (molar absorptivity): at λmax; for fluorescence of saponified dye (in words): reason why spectra were not recorded
Description: Evaluation of the photochemical properties of the active Thallium sensing species was accomplished by saponifying 10 μL of each pro-dye stock solution by incubating with 90 μL of 0.1 M KOH for 20 min at 37° C. with the exception of 8b which was treated with 1% NH4OH for 1 h at 37° C. The saponified compounds were diluted into 150 mM KCl buffered with 10 mM HEPES, pH=7.22 with 50 μM of EDTA. All photochemical measurements were taken in this buffer. Absorbance and fluorescence emission spectra were recorded on a Molecular Devices Spectromax M5 using polystyrene cuvettes with path length=1 cm at 23° C. Molar absorptivities are reported for λmax. The emission wavelengths monitored for recording excitation spectra, the excitation wavelengths used for recording emission spectra, and the corresponding emission cutoff filters used are listed in Table 2 below, and representative excitation and emission spectra are shown in FIG. 7.
To determine the in vitro photochemical properties of the active Tl^+ sensing species, 8a-m were treated with base to remove the acetoxymethyl esters and aryl acetate and then diluted into 10 mM HEPES buffered 150 mM KCl with 50 μM EDTA at pH=7.22.

[3] = biological target: T1, GIRK1 and GIRK2 (Homo sapiens, UniProt P48051+P48549); experiment: ML297 concentration response curves by Tl+ flux assay; type: cell-based
T1 construct: expressed in transfected cells; host or cells: HEK-293
T1 sequence (P48549 1-501): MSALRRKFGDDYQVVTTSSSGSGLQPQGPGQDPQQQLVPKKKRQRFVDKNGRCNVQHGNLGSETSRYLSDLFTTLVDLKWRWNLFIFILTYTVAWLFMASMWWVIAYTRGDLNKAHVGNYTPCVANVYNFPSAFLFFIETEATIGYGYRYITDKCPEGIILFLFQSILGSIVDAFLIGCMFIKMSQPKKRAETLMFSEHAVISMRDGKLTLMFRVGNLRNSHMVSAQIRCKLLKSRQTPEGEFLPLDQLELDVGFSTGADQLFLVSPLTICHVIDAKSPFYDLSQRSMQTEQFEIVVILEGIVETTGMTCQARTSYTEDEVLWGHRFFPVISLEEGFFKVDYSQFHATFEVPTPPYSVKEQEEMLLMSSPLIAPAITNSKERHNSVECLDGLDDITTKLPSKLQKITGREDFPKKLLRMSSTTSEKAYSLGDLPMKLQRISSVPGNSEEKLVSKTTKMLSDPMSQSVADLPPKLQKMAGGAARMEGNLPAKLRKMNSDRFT
T1 sequence (P48051 1-423): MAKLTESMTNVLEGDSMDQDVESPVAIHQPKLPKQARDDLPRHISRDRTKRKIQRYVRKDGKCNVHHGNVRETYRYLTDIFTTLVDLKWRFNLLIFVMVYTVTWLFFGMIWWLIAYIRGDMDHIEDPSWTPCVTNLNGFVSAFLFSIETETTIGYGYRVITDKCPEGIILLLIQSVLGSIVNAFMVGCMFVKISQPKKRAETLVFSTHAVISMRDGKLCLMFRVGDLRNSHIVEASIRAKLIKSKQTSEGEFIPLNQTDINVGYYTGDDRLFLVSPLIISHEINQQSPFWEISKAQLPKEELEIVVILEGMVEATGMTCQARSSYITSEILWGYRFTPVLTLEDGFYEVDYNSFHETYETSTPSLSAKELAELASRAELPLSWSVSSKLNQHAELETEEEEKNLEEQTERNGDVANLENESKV
Text: ML297 concentration response curves—In general, all concentration-response data were collected on a WaveFront Biosciences Panoptic 2. Thallos treated cells were imaged using 482/35 nm excitation and 536/40 nm emission filters. 8c treated cells were imaged using 529/24 nm excitation and 565/24 nm emission filters (unless otherwise noted). FluxOR Red treated cells were imaged using 544/24 nm excitation and 593/40 nm emission filters (all filters purchased from Semrock, Rochester, N.Y.). FluxOR Red reagent was prepared according to the manufacturer's procedure. 5 μM of 8c was used for dye loading for all conditions.
FluxOR Red procedure with background suppressor. The manufacturer's procedure was followed with the exceptions that the dye loading solution was replaced with 20 μL of assay buffer, solutions of ML297 were prepared in assay buffer plus background suppressor, 20 μL of compound solution was added and 10 μL stimulus buffer (basal) was added according to the general assay protocol described above.
FluxOR Red procedure without background suppressor. The FluxOR Red manufacturer's procedure was followed except the background suppressor was replaced by H2O in all buffers.
Bicarbonate buffer with Allura Red AC. The assay and stimulus buffers described in the general Tl^+ flux procedure were used for dye loading, assay buffer with ML297, and stimulus buffer. All buffers were supplemented with 1 mM of Allura Red AC. The wash step to remove dye loading buffer was omitted.
Bicarbonate buffer without Allura Red AC. The general Tl^+ flux procedure was followed without any solutions supplemented with Allura Red AC.
The fluorescence intensity values of the first 6 time points for each well were averaged and the fluorescence intensity for all time points in the well was divided by this value to provide F/Fo for each time point. The average F/Fo of the vehicle control was then subtracted from each curve and the normalized, control subtracted fluorescence intensity value was sampled at a time point several seconds after Tl^+ addition. […] Fold increases in fluorescence reported in the main paper were calculated by averaging F/Fo between 100 and 110 s after Tl^+ addition. Data presented in FIG. 3 and FIG. 6 were obtained using 8c with the FluxOR Red kit as described above under the FluxOR Red with background suppressor procedure.
The performance of 8c was evaluated in a Tl^+ flux assay to generate a concentration response curve (CRC) of the GIRK activator ML297. […] Normalized, control subtracted fluorescence intensity values were sampled along the curves following Tl^+ addition at each concentration and a CRC was fit using GraphPad Prism (FIG. 3B).

| SMILES | on/off (Tl^+ flux assay), maximum fold increase in fluorescence after Tl^+ addition [1] | λem (fluorescence emission maximum) [2] | λmax (absorption maximum) [2] | ε (molar absorptivity) [2] | other results |
| --- | --- | --- | --- | --- | --- |
| COc1cc(NC(=O)c2ccc3c(c2)C(=O)OC32c3ccc(OC(C)=O)cc3Oc3cc(N4CCCC4)ccc32)ccc1N(CC(=O)OCOC(C)=O)CC(=O)OCOC(C)=O (stereo not drawn) [Compound 8l, bis(acetoxymethyl) 2,2′-((4-(3′-acetoxy-3-oxo-6′-(pyrrolidin-1-yl)-3H-spiro[isobenzofuran-1,9′-xanthen]-5-ylcarboxamido)-2-methoxyphenyl)azanediyl)diacetate] | 3.54 ± 0.07 fold | 553 nm | 525 nm | 39000 M⁻¹ cm⁻¹ | – |
| CCN(CC)c1ccc2c(c1)Oc1cc(OC(C)=O)ccc1C21OC(=O)c2cc(C(=O)Nc3ccc(N(CC(=O)OCOC(C)=O)CC(=O)OCOC(C)=O)c(OC)c3)ccc21 (stereo not drawn) [Compound 8d, bis(acetoxymethyl) 2,2′-((4-(3′-acetoxy-6′-(diethylamino)-3-oxo-3H-spiro[isobenzofuran-1,9′-xanthen]-5-ylcarboxamido)-2-methoxyphenyl)azanediyl)diacetate] | 3.28 ± 0.04 fold | 551 nm | 525 nm | 55000 M⁻¹ cm⁻¹ | – |
| COc1cc(NC(=O)c2ccc3c(c2)C(=O)OC32c3ccc(NC4CCCCC4)cc3Oc3cc(OC(C)=O)ccc32)ccc1N(CC(=O)OCOC(C)=O)CC(=O)OCOC(C)=O (stereo not drawn) [Compound 8g, bis(acetoxymethyl) 2,2′-((4-(3′-acetoxy-6′-(cyclohexylamino)-3-oxo-3H-spiro[isobenzofuran-1,9′-xanthen]-5-ylcarboxamido)-2-methoxyphenyl)azanediyl)diacetate] | 4.26 ± 0.07 fold | 535 nm | 514 nm | 57000 M⁻¹ cm⁻¹ | – |
| COc1cc(NC(=O)c2ccc3c(c2)C(=O)OC32c3ccc(NC(C)=O)cc3Oc3cc(OC(C)=O)ccc32)ccc1N(CC(=O)OCOC(C)=O)CC(=O)OCOC(C)=O (stereo not drawn) [Compound 8b, bis(acetoxymethyl) 2,2′-((4-(3′-acetamido-6′-acetoxy-3-oxo-3H-spiro[isobenzofuran-1,9′-xanthen]-5-ylcarboxamido)-2-methoxyphenyl)azanediyl)diacetate] | – | – | 463 nm | 24000 M⁻¹ cm⁻¹ | fluorescence and response to Tl^+ in cells (in words) [1]: Fluorescence was not detected; fluorescence of saponified dye (in words) [2]: very weak fluorescence |
| COc1cc(NC(=O)c2ccc3c(c2)C(=O)OC32c3ccc(Nc4ccccc4)cc3Oc3cc(OC(C)=O)ccc32)ccc1N(CC(=O)OCOC(C)=O)CC(=O)OCOC(C)=O (stereo not drawn) [Compound 8i, bis(acetoxymethyl) 2,2′-((4-(3′-acetoxy-3-oxo-6′-(phenylamino)-3H-spiro[isobenzofuran-1,9′-xanthen]-5-ylcarboxamido)-2-methoxyphenyl)azanediyl)diacetate] | 1.07 ± 0.01 fold | – | 517 nm | 52000 M⁻¹ cm⁻¹ | fluorescence and response to Tl^+ in cells (in words) [1]: minor increase in fluorescence; fluorescence of saponified dye (in words) [2]: very weak fluorescence |
| COc1cc(NC(=O)c2ccc3c(c2)C(=O)OC32c3ccc(OC(C)=O)cc3Oc3cc(N4CCCCC4)ccc32)ccc1N(CC(=O)OCOC(C)=O)CC(=O)OCOC(C)=O (stereo not drawn) [Compound 8m, bis(acetoxymethyl) 2,2′-((4-(3′-acetoxy-3-oxo-6′-(piperidin-1-yl)-3H-spiro[isobenzofuran-1,9′-xanthen]-5-ylcarboxamido)-2-methoxyphenyl)azanediyl)diacetate] | 3.09 ± 0.04 fold | 557 nm | 526 nm | 48000 M⁻¹ cm⁻¹ | – |
| Cc1cc(NC(=O)Nc2ccc(F)c(F)c2)n(-c2ccccc2)n1 [ML297] | – | – | – | – | EC50 ([3]; dye 8c (5 μM, 1 h), FluxOR Red kit with background suppressor, 1 mM Tl^+): 257 ± 3.7 nM; pEC50 and standard error of ML297 activation ([3]; dye 8c (544x/593m filters), FluxOR Red Kit, Background Suppressor +): 6.63 ± 0.01; pEC50 and standard error of ML297 activation ([3]; dye 8c (544x/593m filters), FluxOR Red Kit, Background Suppressor −): 6.66 ± 0.04; pEC50 and standard error of ML297 activation ([3]; dye 8c, FluxOR Red Kit, Background Suppressor +): 6.59 ± 0.01; pEC50 and standard error of ML297 activation ([3]; dye 8c, FluxOR Red Kit, Background Suppressor −): 6.61 ± 0.02; pEC50 and standard error of ML297 activation ([3]; dye 8c, HCO3^− Stimulus Buffer, 1 mM Allura Red AC +): 6.69 ± 0.01; pEC50 and standard error of ML297 activation ([3]; dye 8c, HCO3^− Stimulus Buffer, 1 mM Allura Red AC −): 6.59 ± 0.03; EC50 ([3]; dye 8c, bicarbonate stimulus buffer, 500 μM Tl^+, no-wash, 1 mM Allura Red AC): 204 ± 5.2 nM; pEC50 and standard error of ML297 activation ([3]; dye FluxOR Red, FluxOR Red Kit, Background Suppressor +): 6.64 ± 0.01; pEC50 and standard error of ML297 activation ([3]; dye FluxOR Red, FluxOR Red Kit, Background Suppressor −): 6.41 ± 0.03; pEC50 and standard error of ML297 activation ([3]; dye FluxOR Red, HCO3^− Stimulus Buffer, 1 mM Allura Red AC −): 7.02 ± 0.1; pEC50 and standard error of ML297 activation ([3]; dye Thallos, FluxOR Red Kit, Background Suppressor +): 6.57 ± 0.04; pEC50 and standard error of ML297 activation ([3]; dye Thallos, FluxOR Red Kit, Background Suppressor −): 6.65 ± 0.02; pEC50 and standard error of ML297 activation ([3]; dye Thallos, HCO3^− Stimulus Buffer, 1 mM Allura Red AC +): 6.66 ± 0.01; pEC50 and standard error of ML297 activation ([3]; dye Thallos, HCO3^− Stimulus Buffer, 1 mM Allura Red AC −): 6.61 ± 0.01; EC50 ([3]; dye Thallos, bicarbonate stimulus buffer, 500 μM Tl^+, no-wash, 1 mM Allura Red AC): 219 ± 23 nM; EC50 ([3]; dye Thallos, same procedure (FluxOR Red kit with background suppressor)): 272 ± 23 nM |
